# From patent US20200054601A1, “NOVEL METHODS” (Ethismos Research, Inc., priority 2018, published 2020)
# What was measured:
# [1] = cited from earlier work
# [2] = Qualitative solubility testing of the test article in the test system; type: physicochemical; conditions: aqueous buffer; pH 7.4, potassium phosphate buffer, MgCl2, EDTA, human liver microsomes 0.0125 mg/mL; read-out: Soluble in the test system (visual comparison)
# Experimental: Since stability of the test article solutions is not known, the stock solution and dilutions to working solutions are prepared fresh on the day of use.
# [3] = cited from earlier work; for Efficacy in MDD trials: phase 2 / phase 2b trials in MDD
# CYP2A6 = target: T1, CYP2A6 (Homo sapiens, UniProt P11509); assay: Inhibition of CYP2A6 coumarin 7-hydroxylation in human liver microsomes (direct, time- and metabolism-dependent); conditions: both, pH 7.4
# T1 sequence (P11509 1-494): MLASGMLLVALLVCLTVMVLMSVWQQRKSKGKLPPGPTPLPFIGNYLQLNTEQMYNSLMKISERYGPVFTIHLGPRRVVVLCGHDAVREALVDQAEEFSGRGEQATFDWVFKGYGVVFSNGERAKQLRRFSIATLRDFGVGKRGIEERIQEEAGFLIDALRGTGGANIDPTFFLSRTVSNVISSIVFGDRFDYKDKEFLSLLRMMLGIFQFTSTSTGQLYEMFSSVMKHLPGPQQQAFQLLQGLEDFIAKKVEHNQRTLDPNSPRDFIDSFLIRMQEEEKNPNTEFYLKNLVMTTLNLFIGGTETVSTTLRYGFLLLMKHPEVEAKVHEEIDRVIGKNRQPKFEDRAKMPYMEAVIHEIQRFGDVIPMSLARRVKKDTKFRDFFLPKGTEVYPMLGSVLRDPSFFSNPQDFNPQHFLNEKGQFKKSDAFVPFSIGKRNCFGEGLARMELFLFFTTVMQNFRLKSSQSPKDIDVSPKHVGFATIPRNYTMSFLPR
# Experimental: Known direct and metabolism-dependent inhibitors of CYP2A6 are included as positive controls.
# Human liver microsomes from non-transplantable, donated livers are prepared and characterized at the testing facility as outlined by Pearce, R. et al., “Effects of Freezing, Thawing, and Storing Human Liver Microsomes on Cytochrome P450 Activity,” Archives of Biochemistry and Biophysics, 1996, 331 (2), 145-169 and Parkinson, A. et al., “The Effects of Gender, Age, Ethnicity and Liver Cirrhosis on Cytochrome P450 Enzyme Activity in Human Liver Microsomes and Inducibility in Cultured Human Hepatocytes,” Toxicology and Applied Pharmacology, 2004, 199 (3), 193-209. A mixed-gender pool of 200 individual human liver microsomal samples is used for this study (Sekisui XenoTech catalog number: H2610). The kinetic constants (S50 or Km) used to select marker substrate concentrations and incubation conditions are determined previously.
# Incubation mixtures are prepared in bulk to obviate the need for directly pipetting very small volumes (i.e., 1 μL or less). The test article is dissolved in water and added directly to incubation mixtures.
# A Tecan liquid handling system conducts all incubations. Duplicate aliquots of the buffer mixtures are automatically added to 96-well plates at the appropriate locations. […] The supernatant fractions are analyzed by liquid chromatography tandem mass spectrometry (LC-MS/MS). […]
# [4] = cited from earlier work; for Help in smoking cessation: reported, nortriptyline as the sole pharmacotherapy
structure (smiles),measurement,setting,value
"Clc1ccc([C@]23CNC[C@H]2C3)cc1Cl [Amitifadine, (1R,5S)-1-(3,4-dichlorophenyl)-3-azabicyclo[3.1.0]hexane]",Effect size in depression,[1]; depression,0.6
same,Tolerability,[1]; given by mouth twice daily for up to 12 weeks,good tolerability
same,solubility,[2],≥ 200 µM
COC[C@@H]1[C@@H](c2ccc(Cl)c(Cl)c2)C[C@@H]2CC[C@H]1N2 [GSK-372475],Efficacy in MDD trials,[3],failed
CN1Cc2cc(-c3ccc(N)nn3)ccc2[C@H](c2ccc3ccccc3c2)C1 [Liafensine],Efficacy in treatment resistant depression versus active comparators,[3]; two large phase 2b trials in TRD,no different from full-dose escitalopram (an SSRI) or duloxetine (an SNRI)
CN1CCCC1c1cccnc1 (centres unmarked) [Nicotine],"inhibition at 5 min, 300 µM",CYP2A6,82.5%
N[C@@H]1CC[C@@H](c2ccc(Cl)c(Cl)c2)c2ccccc21 [SEP-225289],Efficacy in MDD trials,[3],failed to differentiate versus the comparators
CNCCC=C1c2ccccc2CCc2ccccc21 [nortriptyline],Help in smoking cessation,[4],increases long-term smoking cessation
c1cnc2cc3c(cc2n1)[C@@H]1CNC[C@H]3C1 [varenicline],One year abstinence rate,[4]; smoking cessation,23%
same,6-month abstinence rate,"[4]; smoking cessation, placebo 10.6%",27.6%
COc1ccc(C(CN(C)C)C2(O)CCCCC2)cc1 (centres unmarked) [venlafaxine],Help in smoking cessation,[4],has not been shown to help
